Values belong to the molecule of their own block, whether it stands above or below them.
Columns and labels:
Assay in all cases: kinase panel
Assay type in all cases: biochemical
ALK4(h) = ALK4(h) (Homo sapiens, UniProt P36896)
Outline: (§1)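 % inhibition read-out; kinome panel of 231 kinases; one analogue run on a selected 98-kinase subset only.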

AMPKα2(h) = AMPKα2(h) (Homo sapiens, UniProt P54646)
Outline: as §1

ASK1(h) = ASK1(h) (Homo sapiens, UniProt Q99683)
Outline: as §1

Axl(h) = Axl(h) (Homo sapiens, UniProt P30530)
Outline: as §1

BTK(h) = BTK(h) (Homo sapiens, UniProt Q06187)
Outline: as §1

Bmx(h) = Bmx(h) (Homo sapiens, UniProt P51813)
Outline: as §1

BrSK1(h) = BrSK1(h) (Homo sapiens, UniProt Q8TDC3)
Outline: as §1

CK1γ2(h) = CK1γ2(h) (Homo sapiens, UniProt P78368)
Outline: as §1

DMPK(h) = DMPK(h) (Homo sapiens, UniProt Q09013)
Outline: as §1

EphA7(h) = EphA7(h) (Homo sapiens, UniProt Q15375)
Outline: as §1

EphB4(h) = EphB4(h) (Homo sapiens, UniProt P54760)
Outline: as §1

FGFR4(h) = FGFR4(h) (Homo sapiens, UniProt P22455)
Outline: as §1

GRK5(h) = GRK5(h) (Homo sapiens, UniProt P34947)
Outline: as §1

GRK7(h) = GRK7(h) (Homo sapiens, UniProt Q8WTQ7)
Outline: as §1

IGF-1R(h), activated = IGF-1R(h), activated (Homo sapiens, UniProt P08069)
Outline: as §1

IRR(h) = IRR(h) (Homo sapiens, UniProt P14616)
Outline: as §1

Lck(h) activated = Lck(h) activated (Homo sapiens, UniProt P06239)
Outline: as §1

Lyn(h) = Lyn(h) (Homo sapiens, UniProt P07948)
Outline: as §1

MRCKα(h) = MRCKα(h) (Homo sapiens, UniProt Q5VT25)
Outline: as §1

Mnk2(h) = Mnk2(h) (Homo sapiens, UniProt Q9HBH9)
Outline: as §1

NEK3(h) = NEK3(h) (Homo sapiens, UniProt P51956)
Outline: as §1

NEK6(h) = NEK6(h) (Homo sapiens, UniProt Q9HC98)
Outline: as §1

PKCβI(h) = PKCβI(h) (Homo sapiens, UniProt P05771)
Outline: as §1

PKCε(h) = PKCε(h) (Homo sapiens, UniProt Q02156)
Outline: as §1

PKCθ(h) = PKCθ(h) (Homo sapiens, UniProt Q04759)
Outline: as §1

PKCι(h) = PKCι(h) (Homo sapiens, UniProt P41743)
Outline: as §1

PKG1β(h) = PKG1β(h) (Homo sapiens, UniProt Q13976)
Outline: as §1

PhKγ2(h) = PhKγ2(h) (Homo sapiens, UniProt P15735)
Outline: as §1

Pim-3(h) = Pim-3(h) (Homo sapiens, UniProt Q86V86)
Outline: as §1

Plk3(h) = Plk3(h) (Homo sapiens, UniProt Q9H4B4)
Outline: as §1

PrKX(h) = PrKX(h) (Homo sapiens, UniProt P51817)
Outline: as §1

Rse(h) = Rse(h) (Homo sapiens, UniProt Q06418)
Outline: as §1

Rsk2(h) = Rsk2(h) (Homo sapiens, UniProt P51812)
Outline: as §1

SAPK2a(h) = SAPK2a(h) (Homo sapiens, UniProt Q16539)
Outline: as §1

SGK2(h) = SGK2(h) (Homo sapiens, UniProt Q9HBY8)
Outline: as §1

SIK(h) = SIK(h) (Homo sapiens, UniProt P57059)
Outline: as §1

SRPK2(h) = SRPK2(h) (Homo sapiens, UniProt P78362)
Outline: as §1

TLK2(h) = TLK2(h) (Homo sapiens, UniProt Q86UE8)
Outline: as §1

ULK2(h) = ULK2(h) (Homo sapiens, UniProt Q8IYT8)
Outline: as §1

VRK2(h) = VRK2(h) (Homo sapiens, UniProt Q86Y07)
Outline: as §1

eEF-2K(h) = eEF-2K(h) (Homo sapiens, UniProt O00418)
Outline: as §1

mTOR/FKBP12(h) = mTOR/FKBP12(h) (Homo sapiens, UniProt P42345)
Outline: as §1

GRK7(h), sequence (Q8WTQ7 whole entry): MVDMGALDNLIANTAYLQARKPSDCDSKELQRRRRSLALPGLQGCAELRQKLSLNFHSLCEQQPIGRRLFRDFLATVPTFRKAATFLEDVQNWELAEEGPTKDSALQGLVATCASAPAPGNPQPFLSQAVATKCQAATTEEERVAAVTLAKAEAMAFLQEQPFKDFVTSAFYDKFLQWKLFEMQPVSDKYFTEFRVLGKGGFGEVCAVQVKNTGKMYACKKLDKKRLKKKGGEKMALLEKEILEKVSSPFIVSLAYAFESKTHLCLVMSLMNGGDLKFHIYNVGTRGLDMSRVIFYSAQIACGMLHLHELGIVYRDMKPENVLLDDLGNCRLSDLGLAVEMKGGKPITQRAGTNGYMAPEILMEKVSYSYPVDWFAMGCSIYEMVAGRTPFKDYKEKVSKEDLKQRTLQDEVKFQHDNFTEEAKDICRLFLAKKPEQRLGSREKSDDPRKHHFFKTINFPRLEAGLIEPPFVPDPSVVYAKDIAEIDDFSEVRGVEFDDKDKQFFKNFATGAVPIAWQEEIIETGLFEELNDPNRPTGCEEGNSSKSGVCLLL
EphA7(h), sequence (Q15375 28-998): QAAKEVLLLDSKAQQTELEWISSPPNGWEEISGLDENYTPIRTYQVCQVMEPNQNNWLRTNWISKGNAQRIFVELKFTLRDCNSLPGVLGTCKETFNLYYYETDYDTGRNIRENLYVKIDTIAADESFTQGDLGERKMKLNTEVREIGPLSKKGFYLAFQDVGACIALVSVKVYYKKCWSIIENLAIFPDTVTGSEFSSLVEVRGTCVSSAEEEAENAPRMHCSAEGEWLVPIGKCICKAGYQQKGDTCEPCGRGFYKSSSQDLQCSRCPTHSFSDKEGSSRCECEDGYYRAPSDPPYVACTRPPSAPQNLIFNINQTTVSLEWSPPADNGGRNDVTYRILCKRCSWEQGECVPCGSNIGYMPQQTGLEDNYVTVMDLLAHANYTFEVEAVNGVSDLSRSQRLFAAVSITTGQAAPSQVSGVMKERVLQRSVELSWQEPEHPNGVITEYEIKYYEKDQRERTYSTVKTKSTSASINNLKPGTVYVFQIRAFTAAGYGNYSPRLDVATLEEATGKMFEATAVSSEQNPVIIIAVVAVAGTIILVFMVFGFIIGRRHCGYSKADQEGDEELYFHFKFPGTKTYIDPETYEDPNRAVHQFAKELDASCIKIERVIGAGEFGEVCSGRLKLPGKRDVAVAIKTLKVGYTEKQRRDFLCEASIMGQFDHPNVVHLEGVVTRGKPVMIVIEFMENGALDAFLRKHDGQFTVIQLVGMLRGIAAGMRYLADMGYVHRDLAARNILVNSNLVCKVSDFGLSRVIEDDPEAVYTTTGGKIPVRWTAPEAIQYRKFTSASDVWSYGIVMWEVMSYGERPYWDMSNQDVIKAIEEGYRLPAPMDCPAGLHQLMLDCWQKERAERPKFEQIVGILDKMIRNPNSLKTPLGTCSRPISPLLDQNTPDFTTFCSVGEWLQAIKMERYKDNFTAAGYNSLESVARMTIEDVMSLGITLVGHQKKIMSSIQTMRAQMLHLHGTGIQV
ALK4(h), sequence (P36896 24-505): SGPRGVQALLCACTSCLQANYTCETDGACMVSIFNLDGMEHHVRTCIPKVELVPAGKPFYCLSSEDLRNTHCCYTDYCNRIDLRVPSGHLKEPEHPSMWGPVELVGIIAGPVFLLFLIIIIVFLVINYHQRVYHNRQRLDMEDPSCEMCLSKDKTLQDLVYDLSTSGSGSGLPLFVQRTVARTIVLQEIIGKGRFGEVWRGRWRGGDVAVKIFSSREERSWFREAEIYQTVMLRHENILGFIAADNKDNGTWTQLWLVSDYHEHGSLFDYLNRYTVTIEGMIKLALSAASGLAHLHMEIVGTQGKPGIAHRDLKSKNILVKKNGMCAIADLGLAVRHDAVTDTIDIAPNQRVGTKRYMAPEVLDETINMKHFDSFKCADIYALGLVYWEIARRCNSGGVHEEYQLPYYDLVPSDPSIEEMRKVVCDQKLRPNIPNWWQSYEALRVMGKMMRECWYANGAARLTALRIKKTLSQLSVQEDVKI
BTK(h), sequence (Q06187 whole entry): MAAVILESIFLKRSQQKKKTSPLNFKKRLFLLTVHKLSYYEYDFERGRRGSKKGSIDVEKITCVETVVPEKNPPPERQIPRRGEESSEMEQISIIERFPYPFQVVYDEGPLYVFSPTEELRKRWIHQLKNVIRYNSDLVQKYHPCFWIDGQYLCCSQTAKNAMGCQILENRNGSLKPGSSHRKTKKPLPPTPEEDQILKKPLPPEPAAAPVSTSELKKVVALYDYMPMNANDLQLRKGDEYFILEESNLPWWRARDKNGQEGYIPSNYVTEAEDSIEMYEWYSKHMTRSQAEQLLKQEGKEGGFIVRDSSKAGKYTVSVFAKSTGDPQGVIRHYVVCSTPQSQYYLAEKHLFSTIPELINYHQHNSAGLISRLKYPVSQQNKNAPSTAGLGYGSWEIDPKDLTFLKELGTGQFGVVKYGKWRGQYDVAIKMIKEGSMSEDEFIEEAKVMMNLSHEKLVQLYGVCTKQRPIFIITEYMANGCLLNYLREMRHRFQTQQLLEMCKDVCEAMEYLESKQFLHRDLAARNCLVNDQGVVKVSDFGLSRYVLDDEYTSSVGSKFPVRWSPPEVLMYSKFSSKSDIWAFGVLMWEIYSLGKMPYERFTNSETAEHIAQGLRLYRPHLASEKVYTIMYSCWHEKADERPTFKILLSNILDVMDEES
Lyn(h), sequence (P07948 whole entry): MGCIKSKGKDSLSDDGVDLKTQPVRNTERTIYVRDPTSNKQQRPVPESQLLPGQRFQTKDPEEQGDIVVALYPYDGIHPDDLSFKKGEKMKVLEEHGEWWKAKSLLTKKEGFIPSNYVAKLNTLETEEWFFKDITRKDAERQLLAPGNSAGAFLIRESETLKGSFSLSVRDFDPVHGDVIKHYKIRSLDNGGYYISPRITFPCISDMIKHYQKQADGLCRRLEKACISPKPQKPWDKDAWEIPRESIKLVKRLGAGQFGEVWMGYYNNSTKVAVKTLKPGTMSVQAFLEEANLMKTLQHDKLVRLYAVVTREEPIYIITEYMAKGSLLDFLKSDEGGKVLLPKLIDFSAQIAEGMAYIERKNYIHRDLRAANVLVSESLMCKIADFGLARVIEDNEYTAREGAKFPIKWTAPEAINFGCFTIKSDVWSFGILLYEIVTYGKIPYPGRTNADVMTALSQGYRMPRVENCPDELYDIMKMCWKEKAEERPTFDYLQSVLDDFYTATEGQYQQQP
IRR(h), sequence (P14616 27-1297): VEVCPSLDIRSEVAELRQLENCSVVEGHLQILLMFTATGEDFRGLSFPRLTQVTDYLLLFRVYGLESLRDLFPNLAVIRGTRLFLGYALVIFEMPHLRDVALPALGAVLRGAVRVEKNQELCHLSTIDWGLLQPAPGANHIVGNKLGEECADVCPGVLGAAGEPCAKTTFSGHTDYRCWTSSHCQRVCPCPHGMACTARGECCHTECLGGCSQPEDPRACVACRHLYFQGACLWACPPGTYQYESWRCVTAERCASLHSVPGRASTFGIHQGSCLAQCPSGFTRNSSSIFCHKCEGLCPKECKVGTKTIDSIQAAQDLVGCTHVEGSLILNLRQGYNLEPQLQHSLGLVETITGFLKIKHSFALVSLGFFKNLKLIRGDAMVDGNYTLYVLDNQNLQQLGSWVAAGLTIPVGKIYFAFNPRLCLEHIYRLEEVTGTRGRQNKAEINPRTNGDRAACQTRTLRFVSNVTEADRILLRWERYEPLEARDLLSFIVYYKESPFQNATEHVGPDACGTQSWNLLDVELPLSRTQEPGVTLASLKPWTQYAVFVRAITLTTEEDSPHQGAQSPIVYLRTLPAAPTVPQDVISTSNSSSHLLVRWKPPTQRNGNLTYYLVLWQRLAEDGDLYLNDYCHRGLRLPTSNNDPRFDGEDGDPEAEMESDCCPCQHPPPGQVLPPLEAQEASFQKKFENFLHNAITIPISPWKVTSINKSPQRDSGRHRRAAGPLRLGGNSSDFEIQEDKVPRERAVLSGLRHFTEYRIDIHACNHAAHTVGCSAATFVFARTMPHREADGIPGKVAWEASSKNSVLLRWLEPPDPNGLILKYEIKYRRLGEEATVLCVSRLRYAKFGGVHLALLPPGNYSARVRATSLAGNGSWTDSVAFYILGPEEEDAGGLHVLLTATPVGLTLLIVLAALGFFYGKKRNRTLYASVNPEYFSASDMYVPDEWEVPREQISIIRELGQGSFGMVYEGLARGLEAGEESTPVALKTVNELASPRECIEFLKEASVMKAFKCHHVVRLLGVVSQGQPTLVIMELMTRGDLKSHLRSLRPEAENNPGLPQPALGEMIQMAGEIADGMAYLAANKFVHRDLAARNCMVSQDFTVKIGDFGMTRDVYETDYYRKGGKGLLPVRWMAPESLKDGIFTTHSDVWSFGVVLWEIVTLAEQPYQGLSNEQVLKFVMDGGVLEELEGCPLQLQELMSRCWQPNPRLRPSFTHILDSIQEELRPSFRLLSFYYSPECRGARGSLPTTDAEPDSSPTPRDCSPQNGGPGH

inhibition at 1 µM (ALK4(h)): 25%
inhibition at 1 µM (AMPKα2(h)): 43%
inhibition at 1 µM (ASK1(h)): 18%
inhibition at 1 µM (Axl(h)): 55%
inhibition at 1 µM (BTK(h)): 11%
inhibition at 1 µM (Bmx(h)): 55%
inhibition at 1 µM (BrSK1(h)): 45%
inhibition at 1 µM (CK1γ2(h)): 49%
inhibition at 1 µM (DMPK(h)): 5%
inhibition at 1 µM (EphA7(h)): 26%
inhibition at 1 µM (EphB4(h)): 53%
inhibition at 1 µM (FGFR4(h)): 8%
inhibition at 1 µM (GRK5(h)): 5%
inhibition at 1 µM (GRK7(h)): 10%
inhibition at 1 µM (IGF-1R(h), activated): 61%
inhibition at 1 µM (IRR(h)): 26%
inhibition at 1 µM (Lck(h) activated): 44%
inhibition at 1 µM (Lyn(h)): 77%
inhibition at 1 µM (MRCKα(h)): -22%
inhibition at 1 µM (Mnk2(h)): 67%
inhibition at 1 µM (NEK3(h)): 0%
inhibition at 1 µM (NEK6(h)): 6%
inhibition at 1 µM (PKCβI(h)): -2%
inhibition at 1 µM (PKCε(h)): -14%
inhibition at 1 µM (PKCθ(h)): 6%
inhibition at 1 µM (PKCι(h)): 3%
inhibition at 1 µM (PKG1β(h)): 13%
inhibition at 1 µM (PhKγ2(h)): 50%
inhibition at 1 µM (Pim-3(h)): 10%
inhibition at 1 µM (Plk3(h)): -6%
inhibition at 1 µM (PrKX(h)): -21%
inhibition at 1 µM (Rse(h)): 30%
inhibition at 1 µM (Rsk2(h)): 28%
inhibition at 1 µM (SAPK2a(h)): -16%
inhibition at 1 µM (SGK2(h)): 44%
inhibition at 1 µM (SIK(h)): 56%
inhibition at 1 µM (SRPK2(h)): -5%
inhibition at 1 µM (TLK2(h)): -8%
inhibition at 1 µM (ULK2(h)): 2%
inhibition at 1 µM (VRK2(h)): 0%
inhibition at 1 µM (eEF-2K(h)): 0%
inhibition at 1 µM (mTOR/FKBP12(h)): 3%
SMILES: Nc1n[nH]c2ccc(-c3ccnc4[nH]c(-c5ccccc5)cc34)cc12 [Compound 4]

inhibition at 1 µM (ALK4(h)): 8%
inhibition at 1 µM (AMPKα2(h)): 13%
inhibition at 1 µM (ASK1(h)): 23%
inhibition at 1 µM (Axl(h)): 9%
inhibition at 1 µM (BTK(h)): 3%
inhibition at 1 µM (Bmx(h)): 17%
inhibition at 1 µM (BrSK1(h)): -5%
inhibition at 1 µM (CK1γ2(h)): 28%
inhibition at 1 µM (DMPK(h)): -4%
inhibition at 1 µM (EphA7(h)): -3%
inhibition at 1 µM (EphB4(h)): 25%
inhibition at 1 µM (FGFR4(h)): 6%
inhibition at 1 µM (GRK5(h)): 3%
inhibition at 1 µM (GRK7(h)): -3%
inhibition at 1 µM (IGF-1R(h), activated): 32%
inhibition at 1 µM (IRR(h)): 1%
inhibition at 1 µM (Lck(h) activated): 23%
inhibition at 1 µM (Lyn(h)): 31%
inhibition at 1 µM (MRCKα(h)): -18%
inhibition at 1 µM (Mnk2(h)): 26%
inhibition at 1 µM (NEK3(h)): -14%
inhibition at 1 µM (NEK6(h)): 3%
inhibition at 1 µM (PKCβI(h)): -6%
inhibition at 1 µM (PKCε(h)): 0%
inhibition at 1 µM (PKCθ(h)): -14%
inhibition at 1 µM (PKCι(h)): -10%
inhibition at 1 µM (PKG1β(h)): 1%
inhibition at 1 µM (PhKγ2(h)): 21%
inhibition at 1 µM (Pim-3(h)): 6%
inhibition at 1 µM (Plk3(h)): -7%
inhibition at 1 µM (PrKX(h)): -22%
inhibition at 1 µM (Rse(h)): 10%
inhibition at 1 µM (Rsk2(h)): 0%
inhibition at 1 µM (SAPK2a(h)): 0%
inhibition at 1 µM (SGK2(h)): 30%
inhibition at 1 µM (SIK(h)): 8%
inhibition at 1 µM (SRPK2(h)): -7%
inhibition at 1 µM (TLK2(h)): 0%
inhibition at 1 µM (ULK2(h)): -4%
inhibition at 1 µM (VRK2(h)): -11%
inhibition at 1 µM (eEF-2K(h)): -7%
inhibition at 1 µM (mTOR/FKBP12(h)): 2%
SMILES: Nc1n[nH]c2ccc(-c3ccnc4[nH]c(-c5cccc(OCc6ccccc6)c5)cc34)cc12 [Compound 5r [SU1261]]

Reference: PMC11314561, “Design and Synthesis of Novel Aminoindazole-pyrrolo[2,3-b]pyridine Inhibitors of IKKα That Selectively Perturb Cellular Non-Canonical NF-κB Signalling” (Molecules, 2024)
